For 24 compounds, TGI and GI50 results are on record in PubChem BioAssay (NCI).

The structures appear in SMILES notation. Values joined by “and” are separate entries in the source; they are usually repeats but may differ in a detail not shown here. Equal entries are not always repeated.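 48-hour exposure; five concentrations; linearly interpolated endpoints. Abbreviation: GI50, concentration required for 50% inhibition of growth. TGI: concentration producing complete growth inhibition.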

As usually defined, the TGI is the concentration giving total growth inhibition. A lower TGI goes with more potent growth arrest. As usually defined, the GI50 is the concentration at which growth is held to half of that of the control.

Holding throughout (assay): DTP human tumour cell line panel, 48 h
Test [1] deals with CCRF-CEM leukemia.
Test [2] concerns SK-MEL-2 melanoma.
Test [3] concerns SK-MEL-28 melanoma.
In test [4] the test system is HT29 colon.
In test [5] the test system is NCI-H522 lung.
For test [6], the system named is K-562 leukemia.
In test [7] the test system is A549 NSCLC.
Test [8] has as its system HCT-15 colon.

On to `COc1cc(/C=C2/C(=O)N(C(=O)OCC(C)C)C(Cc3cc(OC)c(OC)c(C)c3OC)C(=O)N2Cc2ccccc2)c(OC)c(C)c1OC` (stereo not drawn), for which the TGI in test [1], in test [2], in test [3], in test [4], in test [5] and in test [6] was over 100 µM each time. For the same compound, in test [7], the TGI is over 100 µM.

Regarding `OC(c1ccccc1)(c1ccccc1)c1ccncc1`, the total growth inhibition concentration (TGI) in test [1], in test [2], in test [3], in test [4], in test [5] and in test [6] was over 100 µM in each case. The TGI in test [7] and in test [8] was over 100 µM each time.

With `COc1cc2c(c(OC)c1OC)-c1ccc(SC)c(=O)cc1C(CO)C2` (stereo not drawn), the GI50 in test [1], in test [2], in test [6], in test [7] and in test [8] was under 0.01 µM each time. Also, the total growth inhibition concentration (TGI) in test [1] was 2.27 µM; in test [2], under 0.01 µM; in test [4], 0.385 µM; in test [5], 0.271 µM; in test [6], 23.7 µM; in test [7], over 100 µM. Besides, the concentration for total growth inhibition (TGI) in test [8] was 0.723 µM and 1.3 µM.

Turning to `O=C([CH-]C(=O)c1ccccc1)c1ccccc1.O=C([CH-]C(=O)c1ccccc1)c1ccccc1.[La+3].[OH-].[OH3+]`, the GI50 is 15.1 µM in test [2]; 17.1 µM in test [3]; 19.4 µM in test [4]; 3.29 µM in test [5]; 5.24 µM in test [6]; 20.6 µM in test [7]. The GI50 in test [8] was 13 µM. The TGI was 37.8 µM in test [2]; 57.2 µM in test [3]; 50.1 µM in test [4]; 19.8 µM in test [5]; over 100 µM in test [6]; 55.2 µM in test [7]. The same compound returned a TGI in test [8] of 48.1 µM.

For `CCOc1ccccc1N1C(=O)C(=O)C(c2nc3ccccc3o2)C(=O)C1=O`, the TGI in test [1], in test [2], in test [3], in test [4], in test [5] and in test [6] was over 100 µM each time. Also, the TGI in test [7] and in test [8] was over 100 µM each time.

Consider `CCOC(=O)N1CCN(C=S)CC1`, for which the TGI in test [1], in test [2], in test [3], in test [4], in test [5] and in test [6] was over 100 µM throughout. Besides, the TGI in test [7] and in test [8] was over 100 µM in each case.

Consider `CCCCNc1nc(C#N)c(N)s1`, for which the TGI in test [2], in test [3], in test [4], in test [5], in test [6] and in test [7] was over 100 µM each time. The compound further came in with a total growth inhibition concentration (TGI) in test [8] of over 100 µM.

For the compound `CC(C)C1CC[C@@H](C)C[C@@]1(O)CC(N)=O` (stereo partly drawn), the TGI in test [2], in test [3], in test [4], in test [5], in test [6] and in test [7] was over 100 µM each time. For the same compound, the TGI in test [8] is over 100 µM.

In the case of `CN1C(=Nc2ccccc2)SC1=Nc1ccccc1`, the TGI is over 100 µM in test [1]; over 100 µM in test [2]; over 100 µM in test [3]; over 100 µM in test [4]; 41.3 µM in test [5]; over 100 µM in test [6]. For the same compound, the TGI in test [7] and in test [8] was over 100 µM throughout.

Regarding `CCS(CC)(CC)CC1CCCC2=CCC(P(=O)(c3ccccc3)c3ccccc3)CC21` (stereo not drawn), the TGI in test [1] came out at 31 µM; in test [2], 33.8 µM; in test [3] it was 28.4 µM; in test [4] it was 22.8 µM; in test [5], 25.5 µM; in test [6], 39.9 µM. For the same compound, the concentration for total growth inhibition (TGI) in test [7] came out at 18 µM; in test [8], 21.8 µM.

In the case of `Nc1ccnc(=O)[nH]1`, the TGI in test [1], in test [2], in test [3], in test [4], in test [5] and in test [6] was over 100 µM in each case. The TGI in test [7] and in test [8] was over 100 µM in each case.

`CCOc1ccc2c(c1)[n+]([O-])c(-c1ccc(Cl)cc1)c(N)[n+]2[O-]`: the concentration for total growth inhibition (TGI) in test [2], in test [3], in test [4], in test [5], in test [6] and in test [7] was over 100 µM in each case. The total growth inhibition concentration (TGI) in test [8] is over 100 µM.

As for `COC(=O)/C(C)=C(/CCC1(C)OCCO1)O[Si](C)(C)C`, the TGI in test [1], in test [2], in test [4], in test [6], in test [7] and in test [8] was over 100 µM in each case.

For `c1ccc2c(c1)cc(C1NCCc3[nH]cnc31)c1ccccc12` (stereo not drawn), the TGI in test [1] was over 67.9 µM; in test [2], 36.5 µM; in test [3] it was over 65.5 µM; in test [4] it was over 100 µM; in test [5], over 68.5 µM; in test [6], 41.1 µM. For the same compound, the total growth inhibition concentration (TGI) in test [7] and in test [8] was over 100 µM in each case.

With `Oc1ccccc1/C=C/c1csnn1`, the concentration for total growth inhibition (TGI) in test [1], in test [2], in test [3], in test [4], in test [5] and in test [6] was over 100 µM throughout. Further, the TGI is over 100 µM in test [7] and over 94.3 µM in test [8].

Turning to `Cc1cc(=O)n(-c2ccccc2C)c(C)n1`, the TGI in test [1], in test [2], in test [3], in test [4], in test [5] and in test [6] was over 100 µM each time. Besides, the total growth inhibition concentration (TGI) in test [7] and in test [8] was over 100 µM each time.

On to `Cc1ccc2nc(NC(=O)C(=O)C(C#N)c3nc4ccccc4s3)sc2c1` (stereo not drawn), for which the TGI was over 100 µM in test [2]; over 100 µM in test [3]; over 100 µM in test [4]; over 100 µM in test [5]; 76.6 µM in test [6]; over 100 µM in test [8].

In the case of `CCOC(=O)NC(=O)c1cn(CCOC(=O)CCCCCCCCC(=O)OCCn2cc(C(=O)NC(=O)OCC)c(=O)[nH]c2=O)c(=O)[nH]c1=O`, the TGI in test [1], in test [2], in test [3], in test [4], in test [6] and in test [7] was over 100 µM throughout. The compound also displayed a TGI in test [8] of over 100 µM.

Take `Cc1ccc(S(=O)(=O)OC2CSS(=O)CC2OS(=O)(=O)c2ccc(C)cc2)cc1` (stereo not drawn): the TGI is 29 µM in test [3]; 87.5 µM in test [4]; 22.6 µM in test [5]; 21.1 µM in test [6]; 37.9 µM in test [7]; 33.6 µM in test [8].

Regarding `CCc1cc(C(=O)OC)cn1C(=N)c1ccc(Cl)cc1`, the total growth inhibition concentration (TGI) in test [1], in test [2], in test [3], in test [4], in test [6] and in test [7] was over 100 µM throughout. This compound registered a TGI in test [8] of over 100 µM.

Regarding `O=C(O)C(SC(=S)c1ccc(C(=S)SC(C(=O)O)c2ccccc2)cc1)c1ccccc1` (stereo not drawn), the total growth inhibition concentration (TGI) in test [1], in test [2], in test [3], in test [4], in test [6] and in test [7] was over 100 µM throughout. The same compound yielded a total growth inhibition concentration (TGI) in test [8] of over 100 µM.

With `CP1(=O)CCCCC1`, the TGI in test [1], in test [2], in test [3], in test [4], in test [6] and in test [7] was over 100 µM in each case. The compound also came in with a concentration for total growth inhibition (TGI) in test [8] of over 100 µM.

Regarding `Oc1c(C(Nc2cccc3cccnc23)c2ccccc2)ccc2cccnc12` (stereo not drawn), the TGI in test [1] is 78.8 µM; in test [5], 73.8 µM; in test [6] it was over 100 µM; in test [7], over 100 µM.

Regarding `COC1CC(OS(=O)(=O)c2ccc([N+](=O)[O-])cc2)C(OC(=O)c2ccccc2)C(C)O1` (stereo not drawn), the TGI in test [1], in test [3], in test [4], in test [5], in test [6] and in test [7] was over 100 µM each time. For the same compound, the TGI in test [8] is over 100 µM.
